Laboratory results published in article PMC5484485, “In vitro and in vivo effects of kisspeptin antagonists p234, p271, p354, and p356 on GPR54 activation” (PLoS ONE, 2017).
Square brackets hold non-standard residues; d marks the D form. Ends that are not written are not given here.

Legend:
[1] = tested on: plasma LH concentration; conditions: bitches; anestrus, follicular phase, two stages of luteal phase; cited from earlier work
Description: Sensitivity to exogenous KP10 differs according to the stage of the reproductive cycle, as has been shown in rats, ewes, bitches, and women. In the bitch, the highest KP10-induced LH response was obtained during anestrus and the lowest was during the follicular phase. It is possible that the effects of a KP antagonist also differ among the cycle stages.

[2] = tested on: circulating LH / puberty; conditions: cited from earlier work
Experimental: The development of kisspeptin antagonists contributed to an improved understanding of the role of kisspeptin in the reproductive system. Roseweir et al. developed several KP10 analogues and tested their effect on inositol phosphate (IP) release in Chinese hamster ovarian (CHO) cells stably expressing the human GPR54. […] The kisspeptin antagonists were administered intravenously in a dose of 50 μg/kg/h, and had no effect on either the basal plasma LH concentration during the continuous administration or on the KP10-induced LH response. These findings are in line with a previous study in female dogs. […] Adult male rats received an intrape ...

[3] = molecular target: human GPR54 (Homo sapiens, UniProt Q969F8); test: Flow cytometric calcium flux assay, response to peptide alone (agonist / intrinsic activity); type: cell-based; set-up: host or cells: rat hematopoietic CHEM1 cells expressing endogenous Galpha15; conditions: any tested concentration, 10^-13 to 10^-5 M; n = 3
Experimental: In vitro analyses of the effects of kisspeptin and kisspeptin antagonists, were performed using HT[…] cells (rat hematopoietic CHEM1 cells expressing endogenous Gα15 and, stably expressing the human GPR54 receptor (Millipore BV, the Netherlands), CHEM1-GPR54. Cells were counted and suspended in HBSS+++ at a concentration of 5*10^6 cells/ml. To load the cells with the fluorescent dye ester they were incubated in HBSS+++ adjusted to a concentration of 2 μM Fluo-3 AM (Molecular Probes, Life Technologies, the Netherlands) for 1h at 37°C under agitation in the dark. After incubation, the cells were washed by adding HBSS+++ to a volume of 10 ml followed by centrifugation (5 min, 150 x g) to remove excess of Fluo-3AM. […] Thereafter the tube was removed briefly and 25 μl peptide (see below) was added, after which aspiration and analysis continued. For statistical analyses fluorescent data recorded during the time interval 30-60 seconds after initiation of measurement were used. […] Experiments were performed 3 times. Representative flow cytometry results are depicted in Fig 1. […] We then assessed whether these antagonists could compete with KP10 for its receptor. […] For this purpose 25 μl quantities of the antagonists were added to 200 μl of Fluo-3 AM labelled cells (10^6 cells/ml) and incubated for 15 min. […] Peptides p354 and p356 were tested three times with both human and canine KP10; while peptides p234 and p271 were tested three times with human KP10 and once with canine KP10. […] A multivariate general linear model was set up to analyze differences in calcium response between the different concentrations, with Dunnett's test as a post hoc procedure for the antagonists and Bonferroni's test for the agonists.

[4] = adult male rats, 5 nmol ip every hour for three hours

Sequence of human GPR54 (Q969F8 whole entry): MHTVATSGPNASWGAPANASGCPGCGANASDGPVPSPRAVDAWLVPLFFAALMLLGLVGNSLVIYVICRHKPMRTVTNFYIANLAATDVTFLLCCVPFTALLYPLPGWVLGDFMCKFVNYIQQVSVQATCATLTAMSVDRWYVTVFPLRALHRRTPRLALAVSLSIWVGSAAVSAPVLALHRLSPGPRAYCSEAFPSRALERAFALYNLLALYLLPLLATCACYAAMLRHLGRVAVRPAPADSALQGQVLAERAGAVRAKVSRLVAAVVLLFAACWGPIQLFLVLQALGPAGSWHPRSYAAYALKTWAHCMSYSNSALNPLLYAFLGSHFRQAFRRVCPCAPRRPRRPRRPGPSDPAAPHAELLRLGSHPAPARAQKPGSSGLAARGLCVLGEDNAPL

RRMKWKKY[dA]NWNGFG[dW]RF-NH2 [p271, p234 with a penetratin tag]
effect on basal plasma LH concentration, different stages of estrous cycle [1]: did not result in a decrease
KP10-induced LH response, KP10 intracerebroventricular [2, 4]: blunted
KP10-induced LH response, KP10 intraperitoneal [2, 4]: absent
effect on post-castration rise in circulating LH ([2]; male rats, repeated peripheral administration): could prevent the post-castration rise in circulating LH
effect on KP10-induced rise in plasma LH ([2]; mice and rats, repeated peripheral administration): blunted the KP10-induced rise in plasma LH concentration
intrinsic calcium response [3]: no significant intrinsic calcium response
